Test results published in patent US4952564A, “Antiallergic agent” (Dainippon Ink and Chemicals, Inc., priority 1986, dated 1990).

Tests used:
[1] = used in treatment of gastric ulcers; cited from earlier work
ddY male mice = assay: Acute toxicity (minimum lethal dose) in mice; assay type: in vivo; settings: for minimum lethal dose: five 5-week-old ddY male mice
Method: Isoliquiritigenin was orally or intra-peritoneally administered to five 5-week-old ddY male mice. Consequently, it was determined that the minimum lethal dose was not less than 3000 mg/kg (oral administration) or not less than 1000 mg/kg (intra-peritoneal administration).

[2] = system: rat peritoneal exudation cells; assay: Inhibition effect on the liberation of histamine by compound 48/80; assay type: cell-based; settings: for Liberation ratio of histamine (%): control 87.4, blank 9.3
Method: 2. Inhibition effect of the medicine on the liberation of histamine by compound 48/80.
(1) Preparation of rat peritoneal exudation cells
10 ml of Locke's solution containing 0.1% of bovine serum albumin was injected into the abdominal cavity of a rat which had been killed by exsanguination. The rat was lightly massaged, then subjected to an abdominal section so that an abdominal solution was collected. The abdominal cavity was also washed with 5 ml of the same solution and the washing solution was collected and mixed with the above abdominal solution. The abdominal solution was centrifuged at 500 rpm for 5 minutes, then 5 ml of cool Locke's solution was added to the sediment. After the sediment had been washed, 3 ml of cool Locke's solution was again added thereto to form a solution of rat peritoneal exudation cells.
(2) Inhibition effect of medicine on the liberation of histamine by compound 48/80.
0.5 ml of Locke's solution and 1.0 ml of each of the solutions of isoliquiritigenin prepared to the concentration shown in Table 2 (the isoliquiritigenin was dissolved in a physiological saline solution containing 1% sodium bicarbonate, the resultant solution being diluted with Locke's solution) were added to 0.3 ml of the solution of rat peritoneal exudation cells obtained in (1) above and were incubated at 37° C. for 5 minutes. Then, 0.2 ml each of a Locke's solution of the compound 48/80 (1 mg/100 ml) was added to the solution and the mixture was incubated at 37° C. for 10 minutes. After the reaction was stopped by cooling, the obtained solution was centrifuged at 2,500 rpm for 10 minutes to be separated into 1.7 ml of supernatant and 0.3 ml of sediment. 0.1 ml of water and 0.2 ml of 100% trichloroacetic acid were added to the supernatant, and 1.5 ml of Locke's solution and the 100% trichloroacetic acid were added to the sediment which was then allowed to stand for 30 minutes at room temperature and was centrifuged at 3,000 rpm for 15 minutes. 0.35 ml of each of the supernatant and the supernatant of the sediment was taken and 1.65 ml of water and 0.4 ml of 1N sodium hydroxide were added in turn to each of the supernatants. 0.1 ml of 0.5% OPT (orthophthalaldehyde) methanol solution was added to each of the resultant solutions which were then allowed to react at room temperature for 4 minutes. After the reaction was stopped by the addition of 0.2 ml of 2M citric acid, the fluorescence of each of the reaction solutions was measured by a fluorophotometer. […]
The inhibition ratio of isoliquiritigenin for the liberation of histamine by the compound 48/80 is calculated from the following equations: [formula]

[3] = Side effects when administered for a long time; assay type: in vivo; settings: no test described
ileum of the guinea pig = assay: Schultz-Dale reaction (antigen-induced contraction of ileum of actively sensitized guinea pig); assay type: cell-based, guinea pig (Hartley)
Method: The Schultz-Dale test and the inhibition effect of the compound of the present invention on the liberation of histamines by a compound 48/80 indicate that isoliquiritigenin has an antiallergic activity.
(1) Active sensitization of guinea pig by antigenic egg-white albumin (EWA)
After 1, 2 and 3 weeks, additional sensitization was conducted by injecting an equivalent mixed emulsion of a physiological saline solution of 4 mg/ml of EWA and complete Freund's adjuvant into the muscle at a ratio of 0.1 ml/100 g and the guinea pig was subjected to the Schultz-Dale reaction one week after the final sensitization.
(2) Schultz-Dale reaction
The ileum of the guinea pig which was actively sensitized in (1) above was extirpated and immediately soaked in Tyrode's solution to form a specimen of a length of 15 mm which was suspended at a tensile force of l.5 g in a Magnus' tube (10 ml) kept at a temperature of 37° C. Contraction of the ileum by 10^-6 mole of histamine. […] Then, after preincubation for about 2 minutes, 10 μg/ml of EWA was added to the Magnus' tube and the contraction of the ileum was recorded. As a control, the contraction of the ileum was measured by an operation which was similar to that of the above, except that the physiological saline solution of isoliquiritigenin containing 0.2% sodium bicarbonate was not applied. […]

In the case of O=C(/C=C/c1ccc(O)cc1)c1ccc(O)cc1O [Isoliquiritigenin, isoliquiritigenin], the antiulcerous activity [1] is listed as “exhibits an antiulcerous activity”, the minimum lethal dose (ddY male mice; intra-peritoneal administration) is listed as “not less than 1000 mg/kg” and the minimum lethal dose (ddY male mice; oral administration) is listed as “not less than 3000 mg/kg”. The toxicity (ddY male mice; result in words) was “very low toxicity”, the “Liberation ratio of histamine (%)” value ([2]; isoliquiritigenin 100 mg/ml) was 71.0% and the “Liberation ratio of histamine (%)” value ([2]; isoliquiritigenin 300 mg/ml) was 32.7%. For the same compound, the “Liberation ratio of histamine (%)” value ([2]; isoliquiritigenin 1000 mg/ml) was 9.2%, the “liberation of histamine from mast cells by compound 48/80” value ([2]; result in words) was “inhibits histamines from liberating mast cells by the compound 48/80” and the side effects [3] was “few side effects”. For the same compound, the inhibition at 100 µM (ileum of the guinea pig; Cavia porcellus, 10^-4 mole, EWA 10 μg/ml, versus control, read-out: Inhibition ratio (%)) was 90.2% and the “contraction of the ileum of the guinea pig by histamine and SRS-A” value (ileum of the guinea pig; result in words) was “inhibits the contraction of the ileum of the guinea pig by histamine and SRS-A”.
